Laboratory results published in patent US20100021918A1, “METHOD FOR ASSAYING ACTION OF ANTITUMOR AGENT USING SPLICING DEFECTS AS INDEX” (Eisai R&D Management Co., Ltd., priority 2007, published 2010).

System: SMN
Test: Western blotting of abnormal protein from pre-mRNA, SMN
Type: cell-based, human
Settings: HeLa cells, 10 nM and 100 nM, 24 hours; untreated: only a 35 kDa band (FIG. 4)
Description: Consequently the protein may serves as a protein marker to monitor the action of (8E,12E,14E)-7-((4-cycloheptylpiperazin-1-yl)carbonyl)oxy-3,6,16,21-tetrahydroxy-6,10,12,16,20-pentamethyl-18,19-epoxytricosa-8,12,14-trien-11-olide. Whether the pre-mRNA-dependent abnormal protein practically emerged upon the treatment of (8E,12E,14E)-7-((4-cycloheptylpiperazin-1-yl)carbonyl)oxy-3,6,16,21-tetrahydroxy-6,10,12,16,20-pentamethyl-18,19-epoxytricosa-8,12,14-trien-11-olide was examined by using cancer cells (HaLa). […] Based on these findings, the protein generated from pre-mRNA can serve as the marker as well.
About 3×10^5 cells of HeLa cells were first seeded in a 24-well culture plate (bottom area: 2 cm^2), and 18 hours later, the compound was added thereto at the indicated concentration, followed by additional 24-hour culturing. The cells were washed once with PBS(−), and then were lysed by treating with 0.2 ml of M-PER reagent (PIERCE) for 30 minutes. The collected lysate was filtered with a 0.45 μm filter to remove insoluble matters and then combined with an equal amount of 2×SDS-PAGE sample solution. The mixture was heated to be denatured at 95° C. for five minutes to yield a sample to be analyzed.
The analysis sample (15 μl each) was separated with 5-20% SDS-PAGE and transferred onto a PVDF membrane (Hybond-P: GE-Amersham). […]

## CCC(O)C(C)C1OC1CC(C)(O)/C=C/C=C(\C)C1OC(=O)CC(O)CCC(C)(O)C(OC(=O)N2CCN(C3CCCCCC3)CC2)/C=C/C1C (stereo not shown) [E7107, (8E,12E,14E)-7-((4-cycloheptylpiperazin-1-yl)carbonyl)oxy-3,6,16,21-tetrahydroxy-6,10,12,16,20-pentamethyl-18,19-epoxytricosa-8,12,14-trien-11-olide]
  SMN bands in Western blot: multiple bands with a molecular weight of less than 35 kDa were confirmed
